{"source": "patent US20040054001A1", "about": "“Fumaric acid derivatives as nf-kappab inhibitors” (priority 2001, published 2004)", "origin": "cited, not measured here", "system": "Ehrlich ascites tumour", "settings": "mice; cited from earlier work"}
{"smiles": "O=C(O)/C=C/C(=O)O", "note": "[fumaric acid]", "values": [{"measurement": "growth of the Ehrlich ascites tumour", "result": "inhibits"}]}
